According to patent US12447153B2, “HER2 mutation inhibitors” (Array BioPharma Inc., priority 2021, dated 2025):

Tests used:
ErbB2 WT = ErbB2 WT (Homo sapiens (Human), UniProt P04626); experiment: ErbB Enzyme Assay (HTRF KinEASE-TK), Assay 2; type: biochemical
EGFR wild type (EGFR WT) = EGFR wild type (EGFR WT) (Homo sapiens (Human), UniProt P00533); experiment: Cellular Phosphorylation Assay, Assay 5 (EGF-stimulated EGFR phosphorylation, NIH 3T3 cells); type: cell-based
[1] = molecular target: ErbB2 with Exon 20 YVMA insertion (HER2-YVMA) (Homo sapiens (Human), UniProt P04626, INS775YVMA); experiment: Cellular Phosphorylation Assay, Assay 4 (constitutive ErbB2 phosphorylation, NIH 3T3 cells); type: cell-based
Chain of ErbB2 with Exon 20 YVMA insertion (HER2-YVMA) (P04626 other isoform, or with tags, fused parts or gaps ins YVMA behind 775): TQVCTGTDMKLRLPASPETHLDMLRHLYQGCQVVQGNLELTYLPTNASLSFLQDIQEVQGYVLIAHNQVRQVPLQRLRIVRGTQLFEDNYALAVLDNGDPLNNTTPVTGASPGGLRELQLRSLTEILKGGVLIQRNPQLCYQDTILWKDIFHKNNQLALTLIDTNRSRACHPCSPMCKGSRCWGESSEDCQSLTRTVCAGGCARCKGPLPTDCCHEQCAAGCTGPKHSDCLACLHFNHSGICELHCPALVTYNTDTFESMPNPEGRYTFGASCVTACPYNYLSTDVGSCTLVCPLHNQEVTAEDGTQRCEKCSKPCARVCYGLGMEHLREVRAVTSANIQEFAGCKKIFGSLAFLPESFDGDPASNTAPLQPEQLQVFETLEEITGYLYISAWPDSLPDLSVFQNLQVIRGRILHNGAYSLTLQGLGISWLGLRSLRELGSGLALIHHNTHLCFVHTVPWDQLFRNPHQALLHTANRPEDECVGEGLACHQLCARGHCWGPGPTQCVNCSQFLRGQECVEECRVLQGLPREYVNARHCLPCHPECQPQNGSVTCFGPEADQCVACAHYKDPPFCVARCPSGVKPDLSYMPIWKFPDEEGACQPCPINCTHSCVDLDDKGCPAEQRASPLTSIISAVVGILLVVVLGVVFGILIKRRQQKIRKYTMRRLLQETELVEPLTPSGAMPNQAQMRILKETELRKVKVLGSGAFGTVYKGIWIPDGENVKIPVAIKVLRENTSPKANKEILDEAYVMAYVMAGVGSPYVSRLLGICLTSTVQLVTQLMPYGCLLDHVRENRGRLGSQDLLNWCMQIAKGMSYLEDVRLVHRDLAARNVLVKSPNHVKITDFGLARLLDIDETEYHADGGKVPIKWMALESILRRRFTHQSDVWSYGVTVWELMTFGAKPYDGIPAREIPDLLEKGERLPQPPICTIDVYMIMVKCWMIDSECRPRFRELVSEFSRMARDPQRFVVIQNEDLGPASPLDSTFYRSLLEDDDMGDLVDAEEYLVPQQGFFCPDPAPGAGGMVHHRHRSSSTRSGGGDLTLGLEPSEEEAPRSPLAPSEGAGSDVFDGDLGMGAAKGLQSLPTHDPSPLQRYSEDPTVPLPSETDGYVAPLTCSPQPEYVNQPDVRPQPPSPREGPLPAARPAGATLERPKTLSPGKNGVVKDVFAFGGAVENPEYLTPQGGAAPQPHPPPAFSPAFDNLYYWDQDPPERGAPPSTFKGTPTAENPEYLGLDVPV

EGFR = EGFR (Homo sapiens (Human), UniProt P00533); experiment: ErbB Enzyme Assay (HTRF KinEASE-TK), Assay 3; type: biochemical
Chain of EGFR (P00533 25-1210): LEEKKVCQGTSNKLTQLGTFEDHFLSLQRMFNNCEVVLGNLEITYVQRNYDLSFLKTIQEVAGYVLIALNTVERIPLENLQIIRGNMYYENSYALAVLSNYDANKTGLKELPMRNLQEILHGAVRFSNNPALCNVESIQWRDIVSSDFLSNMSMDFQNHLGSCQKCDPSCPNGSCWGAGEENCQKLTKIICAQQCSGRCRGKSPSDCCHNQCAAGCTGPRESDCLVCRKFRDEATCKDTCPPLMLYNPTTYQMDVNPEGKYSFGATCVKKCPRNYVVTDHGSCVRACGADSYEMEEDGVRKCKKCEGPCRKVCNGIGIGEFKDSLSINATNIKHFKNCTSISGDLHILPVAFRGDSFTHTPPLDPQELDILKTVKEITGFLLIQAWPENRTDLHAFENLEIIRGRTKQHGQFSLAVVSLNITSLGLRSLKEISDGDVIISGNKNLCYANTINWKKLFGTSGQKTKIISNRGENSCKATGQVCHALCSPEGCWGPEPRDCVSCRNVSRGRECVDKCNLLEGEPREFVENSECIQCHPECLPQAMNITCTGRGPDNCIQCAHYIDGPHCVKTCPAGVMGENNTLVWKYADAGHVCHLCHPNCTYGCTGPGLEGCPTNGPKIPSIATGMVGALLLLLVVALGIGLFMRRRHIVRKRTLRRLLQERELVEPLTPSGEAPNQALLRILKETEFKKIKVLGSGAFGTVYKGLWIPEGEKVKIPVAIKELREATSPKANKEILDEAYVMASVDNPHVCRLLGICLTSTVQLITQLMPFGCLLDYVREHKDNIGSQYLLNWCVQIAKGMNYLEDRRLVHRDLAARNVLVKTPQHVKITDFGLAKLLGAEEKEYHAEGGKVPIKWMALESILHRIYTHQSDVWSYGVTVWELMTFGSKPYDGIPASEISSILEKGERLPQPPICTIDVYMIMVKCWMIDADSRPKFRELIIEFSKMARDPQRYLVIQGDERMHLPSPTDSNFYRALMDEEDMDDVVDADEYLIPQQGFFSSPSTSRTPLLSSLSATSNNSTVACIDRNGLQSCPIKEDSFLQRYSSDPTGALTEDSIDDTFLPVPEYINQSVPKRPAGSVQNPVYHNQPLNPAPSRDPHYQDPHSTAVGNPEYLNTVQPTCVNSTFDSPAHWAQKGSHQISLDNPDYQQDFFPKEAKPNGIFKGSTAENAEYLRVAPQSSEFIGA

[2] = cellular EGFR WT phosphorylation, EGF-stimulated
[3] = cellular ErbB2 YVMA phosphorylation
[4] = EGF-stimulated EGFR WT phosphorylation

Chain of EGFR wild type (EGFR WT) (P00533 25-1210): as above
Chain of ErbB2 WT (P04626 23-1255): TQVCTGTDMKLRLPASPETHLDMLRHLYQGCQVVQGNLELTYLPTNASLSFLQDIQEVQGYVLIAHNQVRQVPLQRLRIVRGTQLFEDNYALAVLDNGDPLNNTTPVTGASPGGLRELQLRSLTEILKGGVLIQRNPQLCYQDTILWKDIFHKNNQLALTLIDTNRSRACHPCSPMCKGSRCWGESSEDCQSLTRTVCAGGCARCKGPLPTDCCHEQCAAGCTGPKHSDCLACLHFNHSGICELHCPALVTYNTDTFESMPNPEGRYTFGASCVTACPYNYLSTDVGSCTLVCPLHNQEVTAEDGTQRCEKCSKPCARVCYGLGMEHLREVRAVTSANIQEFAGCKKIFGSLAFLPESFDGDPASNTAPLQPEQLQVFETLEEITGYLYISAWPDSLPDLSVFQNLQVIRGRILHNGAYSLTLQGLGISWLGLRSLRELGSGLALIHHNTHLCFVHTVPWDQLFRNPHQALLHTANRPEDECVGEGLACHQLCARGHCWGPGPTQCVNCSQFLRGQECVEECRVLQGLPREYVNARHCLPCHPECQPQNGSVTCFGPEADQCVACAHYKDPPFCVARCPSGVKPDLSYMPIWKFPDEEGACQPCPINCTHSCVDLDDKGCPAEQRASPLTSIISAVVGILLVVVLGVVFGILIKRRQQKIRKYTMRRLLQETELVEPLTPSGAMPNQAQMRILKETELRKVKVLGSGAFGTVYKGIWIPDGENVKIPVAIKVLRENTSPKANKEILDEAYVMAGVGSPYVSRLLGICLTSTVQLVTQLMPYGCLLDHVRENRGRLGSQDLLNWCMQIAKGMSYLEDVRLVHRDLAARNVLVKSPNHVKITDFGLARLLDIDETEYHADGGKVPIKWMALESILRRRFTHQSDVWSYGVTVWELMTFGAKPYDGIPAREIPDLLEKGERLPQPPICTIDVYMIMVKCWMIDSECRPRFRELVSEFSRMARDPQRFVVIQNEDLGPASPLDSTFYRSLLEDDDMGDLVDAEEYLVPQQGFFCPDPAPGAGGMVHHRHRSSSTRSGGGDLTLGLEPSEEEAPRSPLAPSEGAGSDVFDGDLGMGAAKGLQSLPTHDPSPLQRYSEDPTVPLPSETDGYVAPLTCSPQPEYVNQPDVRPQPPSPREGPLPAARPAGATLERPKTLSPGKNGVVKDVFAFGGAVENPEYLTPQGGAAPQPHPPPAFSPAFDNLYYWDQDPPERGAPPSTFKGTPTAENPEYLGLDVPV

| IC50 (ErbB2 WT; ErbB2 WT enzyme assay) | IC50 (EGFR wild type (EGFR WT); [2]) | IC50 [1, 3] | IC50 (EGFR; EGFR enzyme assay) | IC50 (ErbB2 WT; ErbB2 WT enzyme) | IC50 (EGFR wild type (EGFR WT); [4]) | IC50 ([1]; ErbB2 YVMA phosphorylation) | IC50 (EGFR; EGFR enzyme) | Structure (SMILES) |
| --- | --- | --- | --- | --- | --- | --- | --- | --- |
| 0.0204 µM | 0.685 µM | 0.0311 µM | 0.277 µM |  |  |  |  | C=CC(=O)N1C[C@@H]2C[C@H](c3ccc4ncnc(Nc5ccc(Oc6ccc7c(c6)ncn7C)c(C)c5F)c4n3)C[C@H]1C2 [Example 389] |
| 2.33 µM | ≥ 5 µM | 0.0704 µM | ≥ 10 µM |  |  |  |  | C=CC(=O)N1C[C@H]2CC[C@@H]1CN2c1ccc2ncnc(Nc3cc(C)c(Oc4cnc5c(c4)ncn5C)cc3F)c2n1 [Example 367] |
| 0.0121 µM | 0.348 µM | 0.0082 µM | 0.414 µM |  |  |  |  | C=CC(=O)N1CCN(c2ccc3ncnc(Nc4ccc(Oc5ccn6ncnc6c5)c(Cl)c4F)c3n2)C[C@@H]1COC [Example 348] |
| 0.019 µM | 4.08 µM | 0.0527 µM | 1.13 µM |  |  |  |  | C=CC(=O)N1C[C@H]2C[C@@H]1[C@H](c1ccc3ncnc(Nc4ccc(Oc5ccn6ncnc6c5)c(C)c4F)c3n1)C2 [Example 372] |
|  |  |  |  | 0.0164 µM | 0.503 µM | 0.0201 µM | 0.872 µM | C=CC(=O)N1CCC[C@@H](c2ccc3ncnc(Nc4ccc(Oc5ccn6ncnc6c5)c(C)c4F)c3n2)CC1 (single isomer, unassigned) [Example 209] |
| 0.0282 µM | 1.38 µM | 0.0336 µM | 4.55 µM |  |  |  |  | C=CC(=O)N1CCN(c2ccc3ncnc(Nc4ccc(Oc5ccn6ncnc6c5)c(C)c4F)c3n2)C[C@H]1C1CC1 [Example 283] |

Second part, the molecule before the results:

| Structure (SMILES) | IC50 (ErbB2 WT; ErbB2 WT enzyme assay) | IC50 (EGFR wild type (EGFR WT); [2]) | IC50 [1, 3] | IC50 (EGFR; EGFR enzyme assay) | IC50 (ErbB2 WT; ErbB2 WT enzyme) | IC50 (EGFR wild type (EGFR WT); [4]) | IC50 ([1]; ErbB2 YVMA phosphorylation) | IC50 (EGFR; EGFR enzyme) |
| --- | --- | --- | --- | --- | --- | --- | --- | --- |
| C=CC(=O)N1C[C@H]2C[C@@H]1CN(c1ccc3ncnc(Nc4cc(C)c(Oc5ccc6c(c5)ncn6C)cc4F)c3n1)C2 [Example 119, 1-((1S,5R)-3-(4-((2-fluoro-5-methyl-4-((1-methyl-1H-benzo[d]imidazol-5-yl)oxy)phenyl)amino)pyrido[3,2-d]pyrimidin-6-yl)-3,6-diazabicyclo[3.2.1]octan-6-yl)prop-2-en-1-one] |  |  |  |  | 0.0604 µM | ≥ 5 µM | 0.0094 µM | ≥ 10 µM |
| C=CC(=O)N1CCN(c2ccc3ncnc(Nc4ccc(Oc5ccn6ncnc6c5)c(Cl)c4F)c3n2)C[C@H]1C(F)(F)F [Example 85, (S)-1-(4-(4-((4-([1,2,4]triazolo[1,5-a]pyridin-7-yloxy)-3-chloro-2-fluorophenyl)amino)pyrido[3,2-d]pyrimidin-6-yl)-2-(trifluoromethyl)piperazin-1-yl)prop-2-en-1-one] |  |  |  |  | 0.0031 µM | 0.446 µM | 0.025 µM | 0.205 µM |
| C=C(F)C(=O)N1[C@@H]2CC[C@H]1C[C@@H](c1ccc3ncnc(Nc4cc(C)c(Oc5ccn6ncnc6c5)cc4F)c3n1)C2 [Example 207, 1-((1R,3r,5S)-3-(4-((4-([1,2,4]triazolo[1,5-a]pyridin-7-yloxy)-2-fluoro-5-methylphenyl)amino)pyrido[3,2-d]pyrimidin-6-yl)-8-azabicyclo[3.2.1]octan-8-yl)-2-fluoroprop-2-en-1-one] |  |  |  |  | 0.15 µM | ≥ 5 µM | 0.685 µM | ≥ 10 µM |
| C=CC(=O)N1CCC(Oc2ccc3ncnc(Nc4ccc(Oc5cnn6ccnc6c5)c(Cl)c4)c3n2)CC1 [Example 54, 1-(4-((4-((3-chloro-4-(imidazo[1,2-b]pyridazin-7-yloxy)phenyl)amino)pyrido[3,2-d]pyrimidin-6-yl)oxy)piperidin-1-yl)prop-2-en-1-one] |  |  |  |  | 0.423 µM | 1.47 µM | 0.04 µM | 1.38 µM |
| CC#CC(=O)N1CCN(c2ccc3ncnc(Nc4ccc(Oc5ccn6ncnc6c5)c(Cl)c4F)c3n2)CC12CC2 [Example 181, 1-(7-(4-((4-([1,2,4]triazolo[1,5-a]pyridin-7-yloxy)-3-chloro-2-fluorophenyl)amino)pyrido[3,2-d]pyrimidin-6-yl)-4,7-diazaspiro[2.5]octan-4-yl)but-2-yn-1-one] |  |  |  |  | 0.0117 µM | 0.879 µM | 0.0353 µM | 0.553 µM |
| C=CC(=O)N1[C@H](C)C[C@@H](c2ccc3ncnc(Nc4ccc(Oc5ccc6c(c5)ncn6C)c(C)c4F)c3n2)C[C@@H]1C [Example 166, 1-((2R,4SR,6S)-4-(4-((2-fluoro-3-methyl-4-((1-methyl-1H-benzo[d]imidazol-5-yl)oxy)phenyl)amino)pyrido[3,2-d]pyrimidin-6-yl)-2,6-dimethylpiperidin-1-yl)prop-2-en-1-one] |  |  |  |  | 0.0642 µM | ≥ 5 µM | 0.0646 µM | ≥ 10 µM |
| CC#CC(=O)N1CCN(c2ccc3ncnc(Nc4ccc(Oc5ccn6ncnc6c5)c(C)c4F)c3n2)CC1(C)C [Example 179, 1-(4-(4-((4-([1,2,4]triazolo[1,5-a]pyridin-7-yloxy)-2-fluoro-3-methylphenyl)amino)pyrido[3,2-d]pyrimidin-6-yl)-2,2-dimethylpiperazin-1-yl)but-2-yn-1-one] |  |  |  |  | 0.074 µM | ≥ 5 µM | 0.103 µM | 7.63 µM |
| CC#CC(=O)N1CCN(c2ccc3ncnc(Nc4ccc(Oc5ccn6ncnc6c5)c(Cl)c4F)c3n2)C[C@H]1C [Example 178, (R)-1-(4-(4-((4-([1,2,4]triazolo[1,5-a]pyridin-7-yloxy)-3-chloro-2-fluorophenyl)amino)pyrido[3,2-d]pyrimidin-6-yl)-2-methylpiperazin-1-yl)but-2-yn-1-one] |  |  |  |  | 0.008 µM | 0.437 µM | 0.0277 µM | 0.443 µM |
| C=CC(=O)N1C[C@H]2C[C@H](c3ccc4ncnc(Nc5ccc(Oc6ccn7ncnc7c6)c(C)c5F)c4n3)C[C@H]2C1 [Example 200, 1-((3aR,5s,6aS)-5-(4-((4-([1,2,4]triazolo[1,5-a]pyridin-7-yloxy)-2-fluoro-3-methylphenyl)amino)pyrido[3,2-d]pyrimidin-6-yl)hexahydrocyclopenta[c]pyrrol-2(1H)-yl)prop-2-en-1-one] |  |  |  |  | 0.0162 µM | ≥ 5 µM | 0.0835 µM | 2.78 µM |
| C=CC(=O)N1[C@@H]2CC[C@H]1CC(c1ccc3ncnc(Nc4cc(C)c(Oc5ccc6c(c5)ncn6C)cc4F)c3n1)C2 (mixture of isomers) [Example 130, rac-1-((1R,5S)-3-(4-((2-fluoro-5-methyl-4-((1-methyl-1H-benzo[d]imidazol-5-yl)oxy)phenyl)amino)pyrido[3,2-d]pyrimidin-6-yl)-8-azabicyclo[3.2.1]octan-8-yl)prop-2-en-1-one] |  |  |  |  | 0.135 µM | ≥ 5 µM | 0.0199 µM | 7.34 µM |
| C=CC(=O)N1CCN(c2ccc3ncnc(Nc4ccc(Oc5ccn6ncnc6c5)c(Cl)c4F)c3n2)C[C@@H]1C(F)(F)F [Example 86, (R)-1-(4-(4-((4-([1,2,4]triazolo[1,5-a]pyridin-7-yloxy)-3-chloro-2-fluorophenyl)amino)pyrido[3,2-d]pyrimidin-6-yl)-2-(trifluoromethyl)piperazin-1-yl)prop-2-en-1-one] |  |  |  |  | 0.0023 µM | 0.0454 µM | 0.0057 µM | 0.03 µM |
| CC#CC(=O)N1C2CCC1CN(c1ccc3ncnc(Nc4ccc(Oc5ccn6ncnc6c5)c(C)c4F)c3n1)C2 [Example 240, 1-(3-(4-((4-([1,2,4]triazolo[1,5-a]pyridin-7-yloxy)-2-fluoro-3-methylphenyl)amino)pyrido[3,2-d]pyrimidin-6-yl)-3,8-diazabicyclo[3.2.1]octan-8-yl)but-2-yn-1-one] |  |  |  |  | 0.143 µM | 2.02 µM | 0.0924 µM | 4.9 µM |
